{"source": "patent US20230203130A1", "about": "“A PEPTIDE COCKTAIL” (Hubro Therapeutics AS, priority 2020, published 2023)", "key": {"[1]": {"system": "T cells (PBMC) from healthy donors", "experiment": "T-cell proliferation (3H-thymidine, SI) after in vitro stimulation of PBMC with cocktail fsp2+fsp4 (Example 4)", "assay_type": "cell-based, human", "design": "T cell proliferation (stimulation index, SI): immunogenicity: dose or concentration left out as unconfirmed", "settings": "for relative immunogenicity: FIGS. 10 and 11, compared with fsp3 and fsp4; for T cell proliferation (stimulation index, SI): immunogenicity: first and second round of in vitro stimulation with cocktail of fsp2 and fsp4, four healthy donors, FIGS. 10-12", "experimental": "Fresh buffy coats from four healthy donors were obtained from a blood bank.\nPeripheral blood mononuclear cells (PBMC) isolated from fresh buffy coats from four healthy donors were counted and suspended in DC medium to 15*10^6 cells/ml, and subsequently diluted with DC-medium to 4*10^6 cells/ml (Table 6).\nFour 24-well plates were used for each donor, with 4*10^6 cells per well (each well has a volume of 1 ml).\nPeptide cocktail: Solution of peptides fsp2+fsp4, containing […] of each peptide. 40 μl peptide solution was added to each well.\nThe plates were incubated in a cell incubator for 14 days (37° C., 5% CO2). IL-2 and IL-7 were added on day 3. The cells were inspected daily.\nTest peptides: fsp2+fsp4 (SEQ ID NOs: 21 and 23), fsp1 (SEQ ID NO: 20), fsp2 (SEQ ID NO: 21), fsp3 (SEQ ID NO: 22), fsp4 (SEQ ID NO: 23), fsp5 (SEQ ID NO: 19).\nNegative controls: T cells, T cells+APC (without addition of test peptides)\nCells and reagents were added to plate wells (in triplicate) as described in Tables 8 and 9 below. The total volume added to each well was 0.20 ml. • T cells (PBMC): 50 000 cells/well (0.25*10^6 cells/ml) • APC: Irradiated (30 Gy, 8 minutes) autologous feeder cells: 50 000 cells/well • (fspx): 0.2 nmol peptide/well (each peptide), concentration: […] peptide. (fsp was dissolved in DMSO before dilution to correct concentration)\nThe plates were incubated in a cell incubator for 48 hours (37° C., 5% CO2).\nAfter incubation for 48 hours, 20 μl 3H-tThymidine solution (5 Ci/ml) was added to each well and the plates were incubated for approximately 17 hours (37° C., 5% CO2).\nAfter 17 hours the cells were harvested (Unifilters) and dried on the filters at 45° C. until completely dry. After covering the bottom of the Unifilters with adhesive covers (delivered with the Unifilters) 25 μl micro scintillation liquid was added to each well, the plate was covered with TopSeal and 3H-Thymidine uptake was measured as counts per minute (CPM) using a microplate scintillation counter.\nThe T cell proliferation results after the first round of in vitro stimulation with the cocktail of fsp2 and fsp4 peptides are presented as stimulation index (SI) in FIG. 10. SI=mean CPM (triplicates) of (T cells+APC+test peptide(s)) divided by mean CPM (triplicates) of (T cells+APC). SI>1 indicates an increase in T-cell proliferation and SI 2 is a clear sign of immunogenicity.\nPBMCs harvested after the first in vitro stimulation were re-stimulated in vitro according to the protocol set out above, with 2×10^6 cells per well. T-cell proliferation was tested according to the protocol set out above."}, "[2]": {"system": "T-cells from PMBCs from healthy donors", "experiment": "T-cell proliferation after induction of T-cells with fsp2 (Example 5)", "assay_type": "cell-based, human", "settings": "one round of in vitro stimulation, FIG. 13", "experimental": "A similar protocol to that set out in Example 4 was used to test the immunogenicity of fsp6 (SEQ ID NOs: 24) and fsp7 (SEQ ID NO: 123). Fsp2 (SEQ ID NO: 21; 10 μM) was used to induce T-cells from PMBCs isolated from fresh buffy coats from four healthy donors. At day 14 after induction, a T-cell proliferation assay was carried out as in Example 4, using fsp2 (SEQ ID NO: 21), fsp6 (SEQ ID NO: 24) and fsp7 (SEQ ID NO: 123) as test peptides. The T-cell proliferation results after one round of in vitro stimulation are presented as stimulation index (SI) in FIG. 13. […] It is also expected, in view of the results shown in FIGS. 11 and 12, that a peptide having the sequence of fsp6 (SEQ ID NO: […]) but having a C-to-G amino acid substitution corresponding to that in fsp2 is also immunogenic and is useful as a vaccine or treatment against cancer."}, "[3]": {"system": "T-cells from PBMC bulk cultures of healthy donors", "experiment": "Peptide-specific T-cell proliferation after stimulation of PBMC with cocktail fsp2+fsp8+fsp9 (Example 7)", "assay_type": "cell-based, human", "settings": "FIGS. 16-18; for T-cell response: three donors; for T-cell response to the peptide alone: after only one round of stimulation with the peptide mixture", "experimental": "PBMCs isolated from buffy coats from four healthy donors (obtained from a blood bank) were suspended in complete CellGro DC medium to 15*10^6 cells/ml and diluted to 4*10^6 cells/ml (Table 14).\nOn day 1, 1 ml of PBMC suspension (4×10^6 cells/ml) from each donor was transferred to wells of 24-well plates (4*10^6 cells per well) and 60 μl of the peptide cocktail (fsp2+fsp8+fsp9) stock solution (166.67 μM/each peptide) was added to each well. The plates were incubated in a cell incubator for 14 days. IL-2 and IL-7 was added on day 3 (0.50 ml DC medium containing 60 U/ml IL-2 and 15 ng/ml IL-7). The cells were inspected daily and DC medium with cytokines (IL-2, IL7) was refreshed according to in house laboratory routines.\nThe in vitro stimulation of bulk cultures was repeated a further two times (i.e. a total of three stimulations) using PBMCs harvested after the preceding round of in vitro stimulation. Peptide specific T-cell proliferation was tested on day 14, after each round of stimulation, such that T-cell proliferation was tested on days 14, 28 and 42 after the first round of stimulation.\nThe cells from the bulk cultures were harvested (5 minutes at 300×g centrifugation) and re-suspended in DC medium (5 ml). An aliquot of the 5 ml resuspension was diluted 5 times and the T-cells counted in order to calculate the volume required to provide 5×10^4 cells per well for the proliferation assay. T-cells from each donor were transferred (triplicates) to wells of 96-well plates (5×10^4 cells per well) together with autologous, irradiated (30 Gy for 8 minutes) PBMCs (5×10^4 cells per well) and test peptide(s) (final concentration 10 μM/each peptide). Negative controls were wells without test peptide(s) and positive controls were wells with SEC-3 (0.1 μg/ml) without test peptide(s). The cells (plates) were incubated for 48 hours (37° C./5% CO2). After 48 hours, 20 μL of 3H-Thymidine (3.7×104 Bq) was added to the cells and incubation was continued for 17 hours. The cells were harvested (Unifilters using the Filtermate 196 Harvester) and dried on the filters for approx. 4.5 hours at 45° C. The cells were counted (CPM) by using the standard in-house laboratory protocol (TopCount Packard microplate scintillation beta counter and run programme).\nPeptide-specific T-cell proliferation was measured after 14 days of stimulation of PBMC bulk cultures with a peptide cocktail containing fsp2, fsp8 and fsp9 (10 μM each peptide). Proliferation induced by each of the single peptides and the peptide cocktail was tested at a concentration of […] (each peptide).\nPeptide-specific T-cell proliferation was measured after 14 days of re-stimulation of PBMC with a peptide cocktail containing fsp2, fsp8 and fsp9 ([…] each peptide). T-cell proliferation induced by each of the single peptides and the peptide cocktail was tested. The single peptides were tested at a concentration of 10 μM. The peptide cocktail was tested using two different amounts of each peptide in the cocktail, namely, a peptide cocktail containing […] each peptide and a peptide cocktail containing 3.33 μM each peptide.\nPeptide-specific T-cell proliferation was measured after 14 days of a further re-stimulation of PBMC with a peptide cocktail containing fsp2, fsp8 and fsp9 ([…] each peptide). T-cell proliferation induced by each of the single peptides and the peptide cocktail was tested. The single peptides were tested at a concentration of 10 μM. […]"}, "T cells": {"system": "T cells", "settings": "cited from earlier work; for immunogenicity / T-cell responses / patients recognizing the peptide: Saeterdal et al., PNAS 2001; for immunogenicity / T-cell responses: tumour infiltrating Th cells, MSI+ tumours"}, "[4]": {"system": "T-cells from PMBCs of healthy donors", "experiment": "T-cell proliferation after stimulation of PMBCs with mixture fsp10, fsp11 and fsp13 (Example 8)", "assay_type": "cell-based, human", "settings": "FIG. 19", "experimental": "Using a similar procedure to that used in Examples 4 and 7 above, PMBCs from four healthy donors were stimulated in vitro with a peptide mixture containing equimolar amounts (10 uM) of fsp10 (SEQ ID NO: 28), fsp11 (SEQ ID NO: 29) and fsp13 (SEQ ID NO: 31).\nAfter one round of stimulation (14 days), T-cells were harvested and tested for recognition of the peptide mixture, using single peptide concentrations of 10 μM. T-cell proliferation was measured as counts per minute (CPM) after uptake of ^3H-thymidine in a standard T cell proliferation assay.\nThe PMBCs from the four healthy donors underwent a second round of in vitro stimulation, and T-cells were again harvested and tested for proliferation against the peptide mixture and the individual peptides. […] While it has, in the past, been considered that a SI value of greater than 2 is the criterion for indicating a T-cell response in a T-cell proliferation assay, this is only the case in subjects who have been vaccinated prior to the T-cell proliferation assay. Where a healthy subject has not been vaccinated before the T-cell proliferation assay (as in the present T-cell proliferation assay), it is not expected that a SI value of 2 or greater will be achieved. Therefore, in non-vaccinated, healthy subjects, an increase in the SI value above 1 is indicative of a T-cell response."}}, "note": "“Also recorded” adds a separate entry of the source. Where two headings read alike, the source gives them in different places. Where no end group is shown, it is not given here.", "data": [{"substance": "KGIMKEKKSLVRLSSCVPVALMSA (not fully specified) [fsp2, modified peptide of −1a frameshifted TGFβR2]", "values": [{"measurement": "relative immunogenicity", "setting": "[1]", "result": "more immunogenic than peptides which do not comprise amino acids from the wild-type sequence of TGFβR2"}, {"measurement": "T cell proliferation (stimulation index, SI): immunogenicity", "setting": "[1]", "result": "immunogenic and can activate T-cells"}, {"measurement": "relative immunogenicity", "setting": "[2]", "result": "much more immunogenic than fsp7"}, {"measurement": "T-cell response", "setting": "[3]", "result": "able to induce a T-cell response"}]}, {"substance": "SSGVPVALMSAMTTSSSQKN (not fully specified) [fsp4, modified peptide of −1a frameshifted TGFβR2]", "values": [{"measurement": "T cell proliferation (stimulation index, SI): immunogenicity", "setting": "[1]", "result": "immunogenic and can activate T-cells"}]}, {"substance": "AMTTSSSQKNITPAILTCC (listed as Homo sapiens) [p537, prior art peptide of mutTGFβR2]", "values": [{"measurement": "immunogenicity / T-cell responses", "setting": "T cells", "result": "not immunogenic"}]}, {"substance": "SCPLRDLQTLWPILALISMSSIWGTMFS (listed as Homo sapiens) [fsp11, peptide of −1a frameshifted SLC22A9]", "values": [{"measurement": "T-cell response (proliferation, CPM)", "setting": "[4]; donor 1, one round of in vitro stimulation (14 days), 10 μM", "result": "induced T-cell responses"}, {"measurement": "induction of T-cells relative to mixture of fsp11 and fsp13", "setting": "[4]; donor 1, one round", "result": "greater induction of T-cells than the mixture of fsp11"}]}, {"substance": "SPKCIMKEKKSLVRLSSCVPVA (listed as Homo sapiens) [P540, prior art peptide of mutTGFβR2]", "values": [{"measurement": "immunogenicity / T-cell responses", "setting": "T cells", "result": "able to induce T-cell responses in some patients; also recorded: immunogenic"}]}, {"substance": "PKCIMKEKKKSLVRLSSCV (listed as Homo sapiens) [p541, prior art peptide of mutTGFβR2]", "values": [{"measurement": "immunogenicity / T-cell responses", "setting": "T cells", "result": "able to induce T-cell responses in some patients"}, {"measurement": "immunogenicity / T-cell responses", "setting": "T cells; listed as p4541", "result": "immunogenic"}]}, {"substance": "RNRIPAVLRTEGEPLHTPSVGMRET (listed as Homo sapiens) [fsp8, peptide of −1a frameshifted ASTE1]", "values": [{"measurement": "T-cell response to the peptide alone", "setting": "[3]", "result": "induces a T-cell response"}, {"measurement": "T-cell response", "setting": "[3]", "result": "able to induce a T-cell response"}]}, {"substance": "KTILKKAGIGMCVKVSSIFFINKQK (listed as Homo sapiens) [fsp9, peptide of −1a frameshifted TAF1β]", "values": [{"measurement": "T-cell response to the peptide alone", "setting": "[3]", "result": "induces a T-cell response"}, {"measurement": "T-cell response", "setting": "[3]", "result": "able to induce a T-cell response"}]}, {"substance": "KCIMKEKKSLVRLSSCV (listed as Homo sapiens) [fsp6, peptide of −1a frameshifted TGFβR2]", "values": [{"measurement": "T-cell activation (SI)", "setting": "[2]; day 14", "result": "capable of activating T-cells"}, {"measurement": "relative immunogenicity", "setting": "[2]", "result": "less immunogenic than fsp2"}]}, {"substance": "KCIMKEKKSLVRLSSCVPVALMSA (listed as Homo sapiens) [fsp1, peptide of −1a frameshifted TGFβR2]", "values": [{"measurement": "relative immunogenicity", "setting": "[1]", "result": "more immunogenic than peptides which do not comprise amino acids from the wild-type sequence of TGFβR2"}, {"measurement": "T cell proliferation (stimulation index, SI): immunogenicity", "setting": "[1]", "result": "stimulated T-cells induced from PMBCs"}]}, {"substance": "SLVRLSSCV (listed as Homo sapiens) [p523, prior art peptide of mutTGFβR2]", "values": [{"measurement": "immunogenicity", "setting": "T cells; EP1078000 FIG. 14, four rounds of stimulation of the T-cells", "result": "immunogenic"}, {"measurement": "immunogenicity", "setting": "T cells; Linnebacher et al., FIG. 1", "result": "not immunogenic"}]}, {"substance": "SLVRLSSCVPVALMSAMTTSSSQ (listed as Homo sapiens) [p538, prior art peptide of mutTGFβR2]", "values": [{"measurement": "patients recognizing the peptide", "setting": "T cells; patients having spontaneous MSI+ colon cancer", "result": "two of three"}, {"measurement": "patients recognizing the peptide", "setting": "T cells; patients with HNPCC", "result": "all three"}, {"measurement": "immunogenicity / T-cell responses", "setting": "T cells", "result": "highly immunogenic"}]}, {"substance": "fsp7: peptide of −1a frameshifted TGFβR2; same sequence as fsp2 but truncated at the N-terminus (VRLSSCVPVALMSA; listed as Homo sapiens)", "values": [{"measurement": "relative immunogenicity", "setting": "[2]", "result": "both fsp6 and fsp2 are much more immunogenic than fsp7"}]}]}
